Reference: patent publication US20220356162A1, “Heterocyclic Compounds as Lipoxygenase Inhibitors” (Dr. Reddy's Institute of Life Sciences, priority 2019, published 2022)
Like-named read-outs stand apart in the source and are kept apart here.

Experiments:
human 12R-LOX enzyme = molecular target: T1, human 12R-LOX enzyme (Homo sapiens, UniProt O75342); test: Screening of compounds against 12R-LOX in isolated enzyme systems; type: biochemical; conditions: for inhibition at 100 µM: read-out: % Inhibition (at 100 μM)
T1 construct: Coding region of the cDNA was amplified from the basic vector pCMV6Neo-12R-LOX (OriGene, USA) and was ligated into pET28(b); His-tag (N); made in house; host or cells: E. coli BL21 Rossetta DE3
T1 sequence (O75342 1-701): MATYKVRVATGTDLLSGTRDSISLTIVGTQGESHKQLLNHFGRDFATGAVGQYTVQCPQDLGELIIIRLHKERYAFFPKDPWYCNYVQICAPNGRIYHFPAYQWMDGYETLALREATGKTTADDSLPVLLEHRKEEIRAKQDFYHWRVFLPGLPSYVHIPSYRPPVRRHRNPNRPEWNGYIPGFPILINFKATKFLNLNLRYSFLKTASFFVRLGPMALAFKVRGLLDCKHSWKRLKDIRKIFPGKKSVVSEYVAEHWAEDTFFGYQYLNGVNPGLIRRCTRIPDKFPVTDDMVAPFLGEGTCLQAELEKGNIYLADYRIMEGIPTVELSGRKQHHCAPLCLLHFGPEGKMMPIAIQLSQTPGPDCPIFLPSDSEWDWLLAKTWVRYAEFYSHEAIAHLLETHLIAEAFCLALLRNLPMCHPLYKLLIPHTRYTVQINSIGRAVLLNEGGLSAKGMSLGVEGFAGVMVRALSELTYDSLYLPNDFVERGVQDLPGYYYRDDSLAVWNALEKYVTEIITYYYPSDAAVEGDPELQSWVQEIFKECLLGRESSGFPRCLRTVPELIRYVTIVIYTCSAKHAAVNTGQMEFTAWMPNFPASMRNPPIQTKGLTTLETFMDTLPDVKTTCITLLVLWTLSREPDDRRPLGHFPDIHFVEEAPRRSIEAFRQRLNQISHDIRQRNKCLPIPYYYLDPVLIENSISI
From the text: Human 12R-LOX gene was cloned and expressed as an N-terminally His-tagged fusion protein. Coding region of the cDNA was amplified from the basic vector pCMV6Neo-12R-LOX (OriGene, USA) and was ligated into pET28(b), a prokaryotic protein expression vector. E. coli BL21 Rossetta DE3 (an engineered strain of BL21) was transformed with the pET28(b) recombinant vector containing Kanamycin and chloramphenicol resistance gene as the selection markers. Single colony selected on kanamycin and chloramphenicol was checked for the expression of the protein. For this single colony was cultured at 37° C. in LB medium containing […] kanamycin and […] chloramphenicol to reach an absorbance of 0.6 at 600 nm. The cultured bacteria were then induced to express recombinant protein by using isopropyl β-D-thiogalactopyranoside (IPTG) (1 mM final concentration) at 18° C. The culture was incubated for 8-12 h and then the culture was spun down to collect the bacterial cells. The cells were re-suspended in the required amount of phosphate buffer saline (PBS) containing protease inhibitor. The cells were then lysed by sonication to extract the protein. The cells were sonicated for 5 min. and then debris was removed by centrifugation at 13000 rpm for 30 min at 4° C. The clear supernatant was collected and was used as the source of enzyme.
Purification of the recombinant 12R-LOX protein was performed using nickel-nitrilotriacetic acid (Ni-NTA) metal-affinity chromatography as per manufacturer's protocol. Briefly, Ni-NTA slurry (500 microliters for 150 mL of culture) was added to the cleared bacterial lysate and mixed gently by shaking at 4° C. for 60 min. Then the lysate—Ni-NTA slurry was loaded into a column. The column was then washed with 10 mL of washing buffer (50 mM phosphate buffer with 300 mM sodium chloride) containing 20 mM imidazole to remove loosely bound proteins. Then tightly bound proteins were eluted from the column with elution buffer (50 mM phosphate buffer with 300 mM sodium chloride) containing 300 mM imidazole. The purified protein fractions were then analyzed further by SDS-PAGE and western blotting to confirm the presence of 12R-LOX (FIGS. 1a and 1b).
Fractions with human 12R-LOX protein were added to a total volume of 0.3 mL of phosphate buffered saline (pH 7.4) and incubated with substrate, arachidonic acid methyl ester. The mixture was vortexed and incubated for 15 min at 37° C. […] After 5 min the reaction was acidified to pH 3 with 50 μL of acetic acid and then the proteins were precipitated with the addition of 0.3 mL of ice-cold methanol. The total mixture was centrifuged (14000 rpm for 15 min) to remove the proteins and the clear supernatant was analysed on reverse phase HPLC (RP-HPLC). The solvent system used was methanol:water:acetic acid in the ratio of 85:15:0.1 with a flow rate of 1 mL/min on a C18 column. The chromatograms were followed by monitoring the absorbance for HETE products at 235 nm. Individual peak areas in each chromatogram were taken for further comparison analysis.
Baicalein, the standard 12R-LOX inhibitor, was used as a positive control for all inhibition assays performed. The compounds were evaluated for their inhibitory action against human 12R-LOX enzyme at 100 μM concentration in vitro. Further, IC50 of the compounds of the present invention were determined.

[1] = 12R-LOX inhibitory activities in vitro
[2] = 12R-LOX inhibitory activities in vitro, 100 μM concentration

| SMILES | IC50 (human 12R-LOX enzyme; [1]) | inhibition at 100 µM (human 12R-LOX enzyme; [2]) | melting point | inhibition at 100 µM (human 12R-LOX enzyme) |
| --- | --- | --- | --- | --- |
| Nc1ccc(O)cc1-c1cc(=O)c2ccc(Br)cc2o1 [Compound 18, 2-(2-Amino-5-hydroxyphenyl)-7-bromo-4H-chromen-4-one] | 98.1 µM | 53.5 ± 4.2% | > 200 °C |  |
| Nc1ccc(O)cc1-c1cc(=O)c2cc(Br)ccc2o1 [Compound 14, 2-(2-Amino-5-hydroxyphenyl)-6-bromo-4H-chromen-4-one] |  | 6.95 ± 1.6% | > 200 °C |  |
| O=C(Nc1ccc(O)cc1-c1cc(=O)c2ccccc2o1)c1ccccc1 [Compound 12, N-(4-Hydroxy-2-(4-oxo-4H-chromen-2-yl)phenyl)benzamide] |  |  | > 200 °C |  |
| O=c1cc(-c2cc(O)ccc2NS(=O)(=O)c2ccccc2)oc2ccccc12 [Compound 8, N-(4-Hydroxy-2-(4-oxo-4H-chromen-2-yl)phenyl)benzene Sulfonamide] |  |  | > 200 °C |  |
| C#CCOc1ccc(NC(=O)c2ccccc2)c(-c2cc(=O)c3ccccc3o2)c1 [Compound 11, N-(2-(4-Oxo-4H-chromen-2-yl)-4-(prop-2-ynyloxy)phenyl) benzamide] |  |  | 154 to 156 °C |  |
| CS(=O)(=O)Nc1ccc(OS(C)(=O)=O)cc1-c1cc(=O)c2ccccc2o1 [Compound 2, 4-(Methylsulfonamido)-3-(4-oxo-4H-chromen-2-yl)phenylmethane Sulfonate] |  | 56% |  |  |
| O=c1cc(-c2cc(O)ccc2NS(=O)(=O)c2ccc(C(F)(F)F)cc2)oc2ccccc12 [Compound 17, N-(4-Hydroxy-2-(4-oxo-4H-chromen-2-yl)phenyl)-4-(trifluoromethyl)benzenesulfonamide] |  | 30 ± 5% | 160 to 162 °C |  |
| C#CCOc1ccc(NS(=O)(=O)c2ccccc2)c(-c2cc(=O)c3ccccc3o2)c1 [Compound 7, N-(2-(4-Oxo-4H-chromen-2-yl)-4-(prop-2-ynyloxy)phenyl)benzene sulfonamide] |  |  | 152 to 154 °C | 21 ± 7% |
| O=c1cc(-c2cc(O)ccc2NS(=O)(=O)c2ccc([N+](=O)[O-])cc2)oc2ccccc12 [Compound 15, N-(4-Hydroxy-2-(4-oxo-4H-chromen-2-yl)phenyl)-4-nitrobenzenesulfonamide] |  | 6.33 ± 5.9% | > 200 °C |  |

More lines, main results first:

| IC50 (human 12R-LOX enzyme; [1]) | inhibition at 100 µM (human 12R-LOX enzyme; [2]) | melting point | SMILES | inhibition at 100 µM (human 12R-LOX enzyme) |
| --- | --- | --- | --- | --- |
| 97 µM | 51% |  | Nc1cc(I)c(O)cc1-c1cc(=O)c2ccccc2o1 [Compound 3, 2-(2-Amino-5-hydroxy-4-iodophenyl)-4H-chromen-4-one] |  |
|  |  | 153 to 155 °C | C#CCOc1ccc(N)c(-c2cc(=O)c3ccccc3o2)c1 [Compound 6, 2-(2-Amino-5-(prop-2-ynyloxy)phenyl)-4H-chromen-4-one] |  |
|  | 38.3 ± 3.8% | 130 to 132 °C | Nc1ccc(O)cc1-c1cc(=O)c2cc(O)ccc2o1 [Compound 16, 2-(2-Amino-5-hydroxyphenyl)-6-hydroxy-4H-chromen-4-one] |  |
|  | 21 ± 8.4% | 200 to 202 °C | Nc1ccc(O)cc1-c1cc(=O)c2ccc(F)cc2o1 [Compound 13, 2-(2-Amino-5-hydroxyphenyl)-7-fluoro-4H-chromen-4-one] |  |
|  |  | 118 to 120 °C | COc1ccc(N)c(-c2cc(=O)c3ccccc3o2)c1 [Compound 4, 2-(2-Amino-5-methoxyphenyl)-4H-chromen-4-one] |  |
|  |  | 88 to 90 °C | CCOc1ccc(N)c(-c2cc(=O)c3ccccc3o2)c1 [Compound 5, 2-(2-Amino-5-ethoxyphenyl)-4H-chromen-4-one] |  |
| 188 µM | 40% | 202 to 204 °C | Nc1ccc(O)cc1-c1cc(=O)c2ccccc2o1 [Compound 1, 2-(2-Amino-5-hydroxyphenyl)-4H-chromen-4-one] |  |
